Measurements as given in US10618905B2, “Pyrimidine-based compounds for the treatment of cancer” (G1 Therapeutics, Inc., priority 2016, dated 2020).

How the values were obtained:
Format in all cases: biochemical
[1] = target: CDK6/Cyclin D3 (Homo sapiens, UniProt Q00534); assay: CDK6/Cyclin D3 kinase assay
Description: [The procedure below names another target; the source lists this target under the same test.] (§1) Selected compounds disclosed herein were tested in CDK4/cyclinD1, CDK2/CycA and CDK2/cyclinE kinase assays by Nanosyn (Santa Clara, Calif.) to determine their inhibitory effect on these CDKs. The assays were performed using microfluidic kinase detection technology (Caliper Assay Platform). The compounds were tested in 12-point dose-response format in singlicate at Km for ATP. Phosphoacceptor substrate peptide concentration used was 1 μM for all assays and Staurosporine was used as the reference compound for all assays.

[2] = target: CDK2/Cyclin A (Homo sapiens, UniProt P24941); assay: CDK2/CyclinA kinase assay (Nanosyn, Caliper microfluidic); conditions: 12-point dose-response, ATP at Km (50 μM), 0.2 nM enzyme, 3 hr
Description: as §1, with “assays. Specifics of each assay are as described below:” for “assays.”
CDK2/CyclinA: Enzyme concentration: 0.2 nM; ATP concentration: 50 μM; Incubation time: 3 hr.

[3] = target: CDK2/Cyclin E (Homo sapiens, UniProt P24941); assay: CDK2/CyclinE kinase assay (Nanosyn, Caliper microfluidic); conditions: 12-point dose-response, ATP at Km (100 μM), 0.28 nM enzyme, 1 hr
Description: as §1, with “assays. Specifics of each assay are as described below:” for “assays.”
CDK2/CyclinE: Enzyme concentration: 0.28 nM; ATP concentration: 100 μM; Incubation time: 1 hr.

[4] = target: CDK4/Cyclin D1 (Homo sapiens, UniProt P11802); assay: CDK4/CyclinD1 kinase assay (Nanosyn, Caliper microfluidic); conditions: 12-point dose-response, ATP at Km (200 μM), 1 nM enzyme, 10 hr
Chain of CDK4/Cyclin D1 (P11802 whole entry): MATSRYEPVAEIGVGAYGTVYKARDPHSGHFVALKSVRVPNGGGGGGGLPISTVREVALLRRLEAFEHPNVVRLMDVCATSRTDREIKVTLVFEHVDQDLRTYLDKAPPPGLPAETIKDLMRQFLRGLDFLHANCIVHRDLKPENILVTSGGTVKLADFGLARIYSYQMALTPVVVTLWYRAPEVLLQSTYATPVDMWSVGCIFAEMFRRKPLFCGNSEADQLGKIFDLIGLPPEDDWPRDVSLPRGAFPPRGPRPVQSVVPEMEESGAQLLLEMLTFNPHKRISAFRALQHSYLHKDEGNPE
Chain of CDK4/Cyclin D1 (P24385 whole entry partner): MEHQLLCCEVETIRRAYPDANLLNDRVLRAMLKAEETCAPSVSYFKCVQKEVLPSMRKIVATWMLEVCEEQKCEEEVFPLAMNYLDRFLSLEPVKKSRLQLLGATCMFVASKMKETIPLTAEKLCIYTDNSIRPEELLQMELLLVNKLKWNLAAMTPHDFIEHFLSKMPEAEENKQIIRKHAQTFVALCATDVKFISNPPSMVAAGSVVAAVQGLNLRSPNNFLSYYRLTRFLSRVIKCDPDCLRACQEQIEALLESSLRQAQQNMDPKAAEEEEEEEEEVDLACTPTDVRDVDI
Description: as §1, with “assays. Specifics of each assay are as described below:” for “assays.”
CDK4/CyclinD1: Enzyme concentration: 1 nM; ATP concentration: 200 μM; Incubation time: 10 hr.

[5] = target: CDK9/Cyclin T (Homo sapiens, UniProt P50750); assay: CDK9/Cyclin T kinase assay
Chain of CDK9/Cyclin T (P50750 whole entry): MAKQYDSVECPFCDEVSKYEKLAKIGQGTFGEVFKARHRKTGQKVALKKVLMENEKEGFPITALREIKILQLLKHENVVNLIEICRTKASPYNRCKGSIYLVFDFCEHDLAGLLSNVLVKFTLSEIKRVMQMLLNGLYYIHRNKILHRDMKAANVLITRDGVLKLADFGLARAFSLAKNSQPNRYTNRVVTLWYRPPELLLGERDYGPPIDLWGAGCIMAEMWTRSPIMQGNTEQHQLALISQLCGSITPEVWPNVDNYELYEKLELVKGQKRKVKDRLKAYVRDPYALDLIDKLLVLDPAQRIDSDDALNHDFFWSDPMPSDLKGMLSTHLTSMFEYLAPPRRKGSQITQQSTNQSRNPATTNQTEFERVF
Chain of CDK9/Cyclin T (O60563 whole entry partner): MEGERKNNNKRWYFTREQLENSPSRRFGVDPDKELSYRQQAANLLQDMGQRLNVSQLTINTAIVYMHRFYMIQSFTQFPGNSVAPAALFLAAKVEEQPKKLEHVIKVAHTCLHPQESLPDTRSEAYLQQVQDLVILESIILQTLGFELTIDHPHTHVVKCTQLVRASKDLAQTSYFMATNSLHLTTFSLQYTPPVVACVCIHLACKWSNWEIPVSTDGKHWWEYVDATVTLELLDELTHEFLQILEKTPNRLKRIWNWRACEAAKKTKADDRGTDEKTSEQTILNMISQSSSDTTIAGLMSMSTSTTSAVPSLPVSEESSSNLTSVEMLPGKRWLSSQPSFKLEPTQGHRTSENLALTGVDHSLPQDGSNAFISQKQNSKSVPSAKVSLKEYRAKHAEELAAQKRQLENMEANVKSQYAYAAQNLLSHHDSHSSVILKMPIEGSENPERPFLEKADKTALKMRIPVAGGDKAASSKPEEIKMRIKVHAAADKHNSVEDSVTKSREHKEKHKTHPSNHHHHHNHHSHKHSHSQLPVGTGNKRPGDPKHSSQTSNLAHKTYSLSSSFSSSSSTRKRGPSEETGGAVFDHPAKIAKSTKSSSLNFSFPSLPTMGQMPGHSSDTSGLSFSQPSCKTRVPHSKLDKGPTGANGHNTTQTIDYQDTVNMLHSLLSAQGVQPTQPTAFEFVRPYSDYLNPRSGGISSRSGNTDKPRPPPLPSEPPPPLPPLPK

Chain of CDK6/Cyclin D3 (Q00534 whole entry): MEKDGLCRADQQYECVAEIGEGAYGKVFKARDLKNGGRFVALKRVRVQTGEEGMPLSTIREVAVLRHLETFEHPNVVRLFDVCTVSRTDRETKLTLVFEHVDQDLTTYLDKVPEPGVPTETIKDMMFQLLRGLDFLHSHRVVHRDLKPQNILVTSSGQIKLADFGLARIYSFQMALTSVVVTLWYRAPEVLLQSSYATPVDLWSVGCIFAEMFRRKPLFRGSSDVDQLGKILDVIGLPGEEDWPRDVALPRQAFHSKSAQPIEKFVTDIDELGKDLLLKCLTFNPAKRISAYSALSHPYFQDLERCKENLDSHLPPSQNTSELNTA
Chain of CDK6/Cyclin D3 (P30281 whole entry partner): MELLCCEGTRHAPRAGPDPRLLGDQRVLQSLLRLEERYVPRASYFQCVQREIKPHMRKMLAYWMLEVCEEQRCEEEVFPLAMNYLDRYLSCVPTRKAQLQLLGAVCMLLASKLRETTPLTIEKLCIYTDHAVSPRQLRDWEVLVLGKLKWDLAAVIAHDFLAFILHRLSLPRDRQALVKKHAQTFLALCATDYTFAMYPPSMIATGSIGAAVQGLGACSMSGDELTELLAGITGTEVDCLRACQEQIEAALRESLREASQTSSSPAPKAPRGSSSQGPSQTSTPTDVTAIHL

| IC50 [1] [nM] | IC50 [2] [nM] | IC50 [3] [nM] | IC50 [4] [nM] | IC50 [5] [nM] | Compound |
| --- | --- | --- | --- | --- | --- |
| 100 | 10000 | 7000 | 40 | 1000 | CO[C@H]1CC[C@]2(CC1)CN=Cc1cc3cnc(Nc4ccc(N5CCN(C)CC5)cn4)nc3n12 [Compound 12, (1R,4R)-4-methoxy-N-(5-(4-methylpiperazin-1-yl)pyridin-2-yl)-8′H-spiro[cyclohexane-1,9′-pyrazino[1′,2′:1,5]pyrrolo[2,3-d]pyrimidin]-2′-amine] |
| 390 | 70700 | > 100000 | 160 | 11200 | CN1CCN(c2ccc(Nc3ncc4cc5n(c4n3)C3(CCCCC3)CN=C5NCc3ccccc3)nc2)CC1 [Compound 5, N6′-benzyl-N2′-(5-(4-methylpiperazin-1-yl)pyridin-2-yl)-8′H-spiro[cyclohexane-1,9′-pyrazino[1′,2′: 1,5]pyrrolo[2,3-d]pyrimidine]-2′,6′-diamine] |
| 70 | 7000 | 5000 | 40 | 2000 | CN1CCN(c2ccc(Nc3ncc4cc5n(c4n3)C3(CCOCC3)CN=C5)nc2)CC1 [Compound 10, N-(5-(4-methylpiperazin-1-yl)pyridin-2-yl)-2,3,5,6-tetrahydro-8′H-spiro[pyran-4,9′-pyrazino[1′,2′: 1,5]pyrrolo[2,3-d]pyrimidin]-2′-amine] |
| 61 | 24600 | 54900 | 27 | 1570 | CN1CCN(c2ccc(Nc3ncc4cc5n(c4n3)C3(CCCCC3)CN=C5Nc3ccccc3)nc2)CC1 [Compound 4, N2′-(5-(4-methylpiperazin-1-yl)pyridin-2-yl)-N6′-phenyl-8′H-spiro[cyclohexane-1,9′-pyrazino[1′,2′: 1,5]pyrrolo[2,3-d]pyrimidine]-2′,6′-diamine] |
| 3 | 187 | 61 | 1 | 95 | CN1CCN(c2ccc(Nc3ncc4cc5n(c4n3)C3(CCCCC3)CN=C5)nc2)CC1 [Compound 1, N-(5-(4-methylpiperazin-1-yl)pyridin-2-yl)-8′H-spiro[cyclohexane-1,9′-pyrazino[1′,2′:1,5]pyrrolo[2,3-d]pyrimidin]-2′-amine] |
| 1260 | > 100000 | > 100000 | 740 | 32500 | CCCNC1=NCC2(CCCCC2)n2c1cc1cnc(Nc3ccc(N4CCN(C)CC4)cn3)nc12 [Compound 3, N2′-(5-(4-methylpiperazin-1-yl)pyridin-2-yl)-N6′-propyl-8′H-spiro[cyclohexane-1,9′-pyrazino[1′,2′: 1,5]pyrrolo[2,3-d]pyrimidine]-2′,6′-diamine] |
| 20 | 4000 | 3000 | 9 | 900 | CO[C@H]1CC[C@@]2(CC1)CN=Cc1cc3cnc(Nc4ccc(N5CCN(C)CC5)cn4)nc3n12 [Compound 13, (1S,4S)-4-methoxy-N-(5-(4-methylpiperazin-1-yl)pyridin-2-yl)-8′H-spiro[cyclohexane-1,9′-pyrazino[1′,2′:1,5]pyrrolo[2,3-d]pyrimidin]-2′-amine] |
| 90 | 12900 | 5750 | 29 | 4470 | CN1CCN(c2ccc(Nc3ncc4cc5n(c4n3)C3(CCCCC3)CNC5)nc2)CC1 [Compound 2, N-(5-(4-methylpiperazin-1-yl)pyridin-2-yl)-7′,8′-dihydro-6′H-spiro[cyclohexane-1,9′-pyrazino[1′,2′: 1,5]pyrrolo[2,3-d]pyrimidin]-2′-amine] |
| 24 | 3700 | 3000 | 96 | 2500 | CC1=NCC2(CCCCC2)n2c1cc1cnc(Nc3ccc(N4CCN(C)CC4)cn3)nc12 [Compound 9, 6′-methyl-N-(5-(4-methylpiperazin-1-yl)pyridin-2-yl)-8′H-spiro[cyclohexane-1,9′-pyrazino[1′,2′: 1,5]pyrrolo[2,3-d]pyrimidin]-2′-amine] |
